Patent US9914711B2 (priority 2013, dated 2018)

Legend:
C. violaceum CV026 [1] = assay: Measurement of IC50 of compounds having an inhibitory effect on C. violaceum quorum sensing (purple pigment absorbance at 585 nm); type: cell-based; details: Chromobacterium violaceum, CV026, read-out: IC50 of compounds having bacterial quorum sensing inhibitory activity
Procedure: 2. Measurement of IC50 of Compounds Having an Inhibitory Effect on C. violaceum Quorum Sensing
2.1 The wells of a 12-well plate were marked as initial concentration, 2, 4, 8, 16, 32, 64, 128, 256, DMSO group, and a blank control group from left to right and from up to bottom, respectively.
2.2 The monoclonal C. violaceum CV026 grew on LB solid plate was cultured to exponational phase in a 5 ml fresh LB liquid culture medium, 50 μl was then taken for seeding in a 5 ml LB culture medium, and was cultured until the optical density OD value was about 1.0 at 585 nm; the culture was then mixed well with LB culture medium at a ratio of 1:9 by volume (with OD of about 0.15), and was added to a 12-well plate in an amount of 2 ml/well.
2.3 The compounds preliminarily screened to have quorum sensing inhibitory activity were dissolved respectively in DMSO (at a concentration of 0.065M), and then 10 μl was taken into 10 μl DMSO solution to achieve the purpose of 2-fold dilution, and so on. Each compound was gradiently diluted to a highest fold of 256 (gradient dilution of 2, 4, 8, 16, 32, 64, 128, 256 fold).
2.4 To each well, 15 μl 1000-fold diluted inducer C6-HSL (initial concentration of 0.125M) and 8 μl compound solution at each diluted gradient was added; to DMSO control group, 8 μl DMSO was added; to a blank control group, 8 μl LB culture medium was added. Finally, it was ensured that 2 ml culture in each of the 12-well plate was mixed well.
2.5 The 12-well plate was placed in a 30° C. shaker at 130 rpm and was cultured for 10-12 h.
2.6 After the culture was finished, 1 ml culture was taken from each well and was put in a 1.5 ml EP tube and then was centrifugated at 12000 rpm for 10 mins. […] 200 μl supernatant pigment was put in a 96-well culture plate, and was measured for absorbance value at 585 nm by a Microplate Reader, […] the absorbance value and the corresponding concentration were plotted to get the IC50 value.

C. violaceum CV026 [2] = assay: Preliminary screening of bacterial quorum sensing agonistic / inhibitory activity on LB plate (purple stain / white circle); type: cell-based; details: for Regulatory activity (bacterial quorum sensing regulatory activity): 1 μl of 0.065M compound spotted on plate, inhibitory screen with inducer C6-HSL, 30° C., 16-18 h; for Effect on bacterial quorum sensing (summary in words): summary of the activity evaluation experiments
Procedure: 1.1 Preparation work: different compounds to be tested (Compounds 1-40 prepared in Example 1-40) were weighted and then were dissolved in 200 μl DMSO (dimethyl sulfoxide) to prepare a solution at a concentration of 0.065M. 5.0 mg inducer, N-hexanoyl homoserine lactone (C6-HSL, purchased from Sigma Company), was weighted and was dissolved in 200 μl DMSO (at a concentration of 0.125M), and the compounds and the inducer were stored at 4 for further use. C. violaceum CV026 (donated by Professor McLean J C from Texas State University) in LB culture medium (LB culture medium consisting of 1% (percentage by mass) tryptone, 0.5% (percentage by mass) yeast extract, 1% (percentage by mass) NaCl and water) was cultured under shaking in a shaker at 30, 200 rpm to get the culture medium for further use.
1.2 Method for preliminary screening of compounds having agonistic activity: 400 μl C. violaceum CV026 (at a bacterial concentration of 1×10^8/ml) was added to 5 ml melted semi-solid LB culture medium, and was mixed well; the mixed culture medium was poured into a solid LB plate; when the mixed culture medium was solidified on the plate, lattice was made thereon; 1 μl of the dissolved compounds to be tested (Compounds 1-40 in Examples 1-40, at a concentration of 0.065M) was spotted on the plate; when the compounds on the plate was dried in air, the plate was put in a 30° C. oven upside down and was cultured for a period of 16-18 h. If the compound to be tested has an agonistic effect on C. violaceum CV026 on the LB plate, purple stain will be induced on the LB plate. The agonistic activity of a compound is determined depending on whether purple stain is induced for C. violaceum CV026 on LB plate as well as the purple depth.
1.3 Method for preliminary screening of compounds having inhibitory activity: the inducer C6-HSL was diluted gradiently to 1000 times by means of 2-fold dilution; 15 μl diluted inducer and 400 μl C. violaceum CV026 in exponential phase (at a bacterial concentration of 1×10^8/ml) were mixed well and then were added to a 5 ml melted semi-solid LB culture medium; the mixture of inducer, C. violaceum, and semi-solid LB was poured onto a solid LB plate; when the mixture was solidified on the plate, lattice was made thereon: 1 μl of the dissolved compounds to be tested (Compounds 1-40 in Examples 1-40, at a concentration of 0.065M) was spotted on the plate; when the compounds on the plate were dried in air, the plate was put in a 30° C. oven upside down and was cultured for a period of 16-18 h. If the compound to be tested has an inhibitory effect on C. violaceum CV026 on the LB plate, white circle will appear on the LB plate. The inhibitory activity of a compound is preliminary determined depending on the size of the white circle appeared after C. violaceum CV026 was inhibited on LB plate.
It is found after preliminary screening that 22 compounds according to the invention have bacterial quorum sensing regulatory activity, and the screening result was shown in Table 1.

Row | SMILES | IC50 (C. violaceum CV026 [1]) [µM] | Regulatory activity (bacterial quorum sensing regulatory activity) (C. violaceum CV026 [2]) | Effect on bacterial quorum sensing (summary in words) (C. violaceum CV026 [2]) | melting point [°C]
1 | CCc1ccc(C(=O)NN2CCOC2=O)cc1 [Compound 11, 4-ethyl-N-(2-oxo-oxazolidin-3-yl)benzamide] | 13.9 ± 4.21 | − | inhibitory effect on bacterial quorum sensing | 170 to 173
2 | O=C(NN1CCOC1=O)c1ccc([N+](=O)[O-])cc1 [Compound 7, 4-nitro-N-(2-oxo-oxazolidin-3-yl)benzamide] | 18.7 ± 2.59 | − | inhibitory effect on bacterial quorum sensing | 206 to 208
3 | O=C(NN1CCOC1=O)c1ccc(Br)cc1 [Compound 12, 4-bromo-N-(2-oxo-oxazolidin-3-yl)benzamide] | 7.85 ± 1.71 | ± | both an agonizing effect and an inhibitory effect | 202 to 204
